Entries after “also recorded” stand apart in the source; their conditions may differ.
Assays:
DPP-IV = DPP-IV (Homo sapiens, UniProt P27487); assay: In vitro plasma stability of GLP-1 peptides secreted from human cells; details: cell culture supernatant, human lymphocyte enriched plasma, 37° C., 3 or additionally 6 and 9 hours
[1] = tested on: patients with AMI and severe systolic dysfunction; details: GLP-1 infusion added to standard therapy; cited from earlier work
Rin-5F cells = assay: Anti-apoptotic efficacy, cycloheximid-induced apoptosis; assay type: cell-based, rat; details: 24 hours
Description: 40.000 Rin-5F cells were seeded per 96 well and cultivated for 2 days in RPMI supplemented with 1% L-Glutamin and 10% fetal calf serum. […] After 24 hours cell viability is quantified using AlamarBlue.

DPP-IV, sequence (P27487 whole entry, the tested form may be a part): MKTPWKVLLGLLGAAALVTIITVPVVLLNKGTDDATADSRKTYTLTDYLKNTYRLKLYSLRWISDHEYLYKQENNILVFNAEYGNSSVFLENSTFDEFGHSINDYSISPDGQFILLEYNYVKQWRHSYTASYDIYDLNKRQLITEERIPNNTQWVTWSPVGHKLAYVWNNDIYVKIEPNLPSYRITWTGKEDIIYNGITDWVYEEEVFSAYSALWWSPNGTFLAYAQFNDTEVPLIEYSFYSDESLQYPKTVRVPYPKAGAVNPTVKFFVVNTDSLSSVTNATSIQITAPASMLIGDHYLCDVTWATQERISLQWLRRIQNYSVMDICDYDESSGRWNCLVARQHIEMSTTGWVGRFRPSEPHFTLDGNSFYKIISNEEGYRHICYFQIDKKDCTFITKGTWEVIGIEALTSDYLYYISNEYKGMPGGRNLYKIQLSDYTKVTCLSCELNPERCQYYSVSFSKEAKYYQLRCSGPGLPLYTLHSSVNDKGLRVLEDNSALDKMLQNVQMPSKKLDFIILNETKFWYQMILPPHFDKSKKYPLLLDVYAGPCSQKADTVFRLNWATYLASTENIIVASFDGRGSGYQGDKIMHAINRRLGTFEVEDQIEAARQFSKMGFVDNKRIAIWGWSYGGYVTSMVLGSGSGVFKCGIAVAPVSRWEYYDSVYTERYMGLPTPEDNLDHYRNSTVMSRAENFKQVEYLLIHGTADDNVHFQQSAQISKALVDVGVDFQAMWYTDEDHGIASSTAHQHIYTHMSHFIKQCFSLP

## GLP-1(7-37)-IP2-extended with 11 AA [construct #317]
DPP-IV
  stability to DPP-IV degradation in plasma (active GLP-1 ELISA): more resistant to degradation

## GLP1(7-37)-IP2-GLP1(7-37) [construct #217]
DPP-IV
  stability to DPP-IV degradation in plasma (active GLP-1 ELISA): more resistant to degradation; also recorded: nearly fully stabilized to DPP-IV degradation

## Glucagon Like Peptide-1 (HAEGTFTSDVSSYLEGQAAKEFIAWLVKGRG) [GLP-1, naturally occurring incretin, infused in literature studies]
[1]
  regional and global LV function: improved regional and global LV function

## GLP-1(7-37)-IP2-GLP-1(7-37) [CM1]
Rin-5F cells; CHX 10 μg/ml and 100 μg/ml, different concentrations of CM1
  cell viability: significant (p<0.01) increase of cell viability
Rin-5F cells; cycloheximid, serum-free, 1 nM CM1, p<0.01
  anti-apoptotic effect (cell viability, AlamarBlue): significant anti-apoptotic effect

From US20110236431A1, “TREATMENT OF ACUTE MYOCARDIAL INFARCTION (AMI) USING ENCAPSULATED CELLS ENCODING AND SECRETING GLP-1 PEPTIDES OR ANALOGS THEREOF” (BIOCOMPATIBLES UK LTD., priority 2008, published 2011)
